In patent US7652022B2, “Diaryl urea derivatives useful for the treatment of protein kinase dependent diseases” (Novartis AG, priority 2002, dated 2010):

How the values were obtained:
[1] = biological target: T1, c-Abl kinase (His-tagged kinase domain of c-Abl) (Homo sapiens, UniProt P00519); assay: c-Abl protein-tyrosine kinase in vitro enzyme filter binding assay; type: biochemical; conditions: % inhibition at 10 μM
T1 construct: The His-tagged kinase domain of c-Abl is cloned and expressed in the baculovirus/Sf9 system; His tag; made in house; host or cells: Sf9 insect cells (baculovirus)
T1 sequence (P00519 242-493 limits assumed): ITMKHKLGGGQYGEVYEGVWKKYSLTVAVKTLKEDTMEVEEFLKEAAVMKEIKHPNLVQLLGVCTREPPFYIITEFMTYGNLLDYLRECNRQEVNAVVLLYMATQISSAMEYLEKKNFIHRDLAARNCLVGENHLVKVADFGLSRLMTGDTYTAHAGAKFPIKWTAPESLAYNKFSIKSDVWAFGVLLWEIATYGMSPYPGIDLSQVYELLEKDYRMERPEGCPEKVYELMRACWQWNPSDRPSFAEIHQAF
Method: An in vitro enzyme assay is performed in 96-well plates as a filter binding assay as described by Geissler et al. in Cancer Res. 1992; 52:4492-4498, with the following modifications. The His-tagged kinase domain of c-Abl is cloned and expressed in the baculovirus/Sf9 system as described by Bhat et al. in J. Biol. Chem. 1997; 272:16170-16175. A protein of 37 kD (c-Abl kinase) is purified by a two-step procedure over a Cobalt metal chelate column followed by an anion exchange column with a yield of 1-2 mg/L of Sf9 cells (Bhat et al., reference cited). The purity of the c-Abl kinase is >90% as judged by SDS-PAGE after Coomassie blue staining. The assay contains (total volume of 30 μL): c-Abl kinase (50 ng), 20 mM Tris·HCl, pH 7.5, 10 mM MgCl2, 10 μM Na3VO4, 1 mM DTT and 0.06 μCi/assay [γ^33 P]-ATP (5 μM ATP) using 30 μg/mL poly-Ala,Glu,Lys,Tyr-6:2:5:1 (Poly-AEKY, Sigma P1152) in the presence of 1% DMSO. Reactions are terminated by adding 10 μL of 250 mM EDTA and 30 μL of the reaction mixture is transferred onto Immobilon-PVDF membrane (Millipore, Bedford, Mass., USA) previously soaked for 5 min with methanol, rinsed with water, then soaked for 5 min with 0.5% H3PO4 and mounted on vacuum manifold with disconnected vacuum source. After spotting all samples, vacuum is connected and each well rinsed with 200 μL 0.5% H3PO4. Membranes are removed and washed on a shaker with 0.5% H3PO4 (4 times) and once with ethanol. Membranes are counted after drying at ambient temperature, mounting in Packard TopCount 96-well frame, and addition of 10 μL/well of Microscint™ (Packard).
Enzymatic (c-Abl, KDR, Flt3) data are given on Table 17 (% inhibition at 10 μM). (Measurements are made as described above in the general description).

[2] = biological target: T2, human VEGF-R2 receptor (KDR) (Homo sapiens, UniProt P35968); assay: Inhibition of VEGF-induced VEGF-R2 (KDR) autophosphorylation in transfected CHO cells, sandwich ELISA; type: cell-based; conditions: % inhibition at 10 μM
T2 construct: expressed in transfected cells
Method: The inhibition of VEGF-induced receptor autophosphorylation can be confirmed with a further in vitro experiments in cells such as transfected CHO cells, which permanently express human VEGF-R2 receptor (KDR), are seeded in complete culture medium (with 10% fetal calf serum=FCS) in 6-well cell-culture plates and incubated at 37° C. under 5% CO2 until they show about 80% confluency. The compounds to be tested are then diluted in culture medium (without FCS, with 0.1% bovine serum albumin) and added to the cells. (Controls comprise medium without test compounds). After two hours of incubation at 37° C., recombinant VEGF is added; the final VEGF concentration is 20 ng/ml. After a further five minutes incubation at 37° C., the cells are washed twice with ice-cold PBS (phosphate-buffered saline) and immediately lysed in 100 μl lysis buffer per well. The lysates are then centrifuged to remove the cell nuclei, and the protein concentrations of the supernatants are determined using a commercial protein assay (BIORAD). The lysates can then either be immediately used or, if necessary, stored at −20° C.
The plates are then washed and the remaining free protein-binding sites are saturated with 3% TopBlock® (Juro, Cat. # TB232010) in phosphate buffered saline with Tween 20® (polyoxyethylen(20)sorbitane monolaurate, ICI/Uniquema) (PBST). The cell lysates (20 μg protein per well) are then incubated in these plates overnight at 4° C. together with an antiphosphotyrosine antibody coupled with alkaline phosphatase (PY20:AP from Zymed). […] The luminescence is measured in a Packard Top Count Microplate Scintillation Counter. The difference between the signal of the positive control (stimulated with VEGF) and that of the negative control (not stimulated with VEGF) corresponds to VEGF-induced VEGF-R2 phosphorylation (=100%). The activity of the tested substances is calculated as percent inhibition of VEGF-induced VEGF-R2 phosphorylation, wherein the concentration of substance that induces half the maximum inhibition is defined as the IC50 (inhibitory dose for 50% inhibition). […]

T2 sequence (P35968 20-1356): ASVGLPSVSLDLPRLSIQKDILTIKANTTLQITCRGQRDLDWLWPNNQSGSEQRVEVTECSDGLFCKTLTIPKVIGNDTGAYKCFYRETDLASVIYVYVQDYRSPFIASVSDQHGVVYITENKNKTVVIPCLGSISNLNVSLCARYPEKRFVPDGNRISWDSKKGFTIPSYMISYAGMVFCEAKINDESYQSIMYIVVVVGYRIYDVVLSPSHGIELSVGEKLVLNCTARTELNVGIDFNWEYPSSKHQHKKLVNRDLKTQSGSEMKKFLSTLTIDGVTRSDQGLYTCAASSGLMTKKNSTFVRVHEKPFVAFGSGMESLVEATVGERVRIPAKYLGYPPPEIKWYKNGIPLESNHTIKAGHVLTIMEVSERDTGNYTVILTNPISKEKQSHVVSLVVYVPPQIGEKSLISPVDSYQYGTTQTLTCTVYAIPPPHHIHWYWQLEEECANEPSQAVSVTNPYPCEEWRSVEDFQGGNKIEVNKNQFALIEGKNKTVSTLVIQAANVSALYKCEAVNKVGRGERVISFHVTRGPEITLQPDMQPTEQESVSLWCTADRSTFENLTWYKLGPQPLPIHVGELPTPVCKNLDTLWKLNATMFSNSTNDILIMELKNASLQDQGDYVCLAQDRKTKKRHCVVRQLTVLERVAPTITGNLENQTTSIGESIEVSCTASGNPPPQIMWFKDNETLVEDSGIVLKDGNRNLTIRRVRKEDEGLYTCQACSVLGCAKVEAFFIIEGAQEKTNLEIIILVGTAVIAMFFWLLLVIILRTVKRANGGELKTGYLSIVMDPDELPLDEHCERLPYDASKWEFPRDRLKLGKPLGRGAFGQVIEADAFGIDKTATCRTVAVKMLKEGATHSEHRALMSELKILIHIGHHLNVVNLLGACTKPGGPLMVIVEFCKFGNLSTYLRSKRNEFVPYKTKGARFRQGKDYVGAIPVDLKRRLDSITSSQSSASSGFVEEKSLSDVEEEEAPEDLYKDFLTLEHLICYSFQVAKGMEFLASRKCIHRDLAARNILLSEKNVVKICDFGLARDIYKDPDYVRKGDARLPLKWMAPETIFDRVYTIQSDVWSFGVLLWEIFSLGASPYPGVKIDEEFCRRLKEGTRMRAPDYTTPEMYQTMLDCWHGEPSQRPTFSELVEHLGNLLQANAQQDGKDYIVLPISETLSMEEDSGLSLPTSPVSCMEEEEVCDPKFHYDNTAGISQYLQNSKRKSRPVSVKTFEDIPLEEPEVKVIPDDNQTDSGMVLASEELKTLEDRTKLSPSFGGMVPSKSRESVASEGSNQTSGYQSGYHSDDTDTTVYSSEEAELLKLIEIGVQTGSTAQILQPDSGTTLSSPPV

| Compound | melting point | c-Abl (% at 10 μM) [1] [%] | KDR trans (% at 10 μM) [2] [%] |
| --- | --- | --- | --- |
| CCCc1ccc(NC(=O)Nc2ccc(Oc3ccncc3)cc2)cc1 [Example 3] |  | 58 | 25 |
| O=C(Nc1ccc(Oc2cc(Nc3ccc(O)cc3)ncn2)cc1)Nc1cccc(C(F)(F)F)c1 [Example 22, N-(4-(4-(4-hydroxyphenylamino)-pyrimidin-6-yl)-oxyphenyl)-N′-(3-trifluoromethylphenyl)-urea] | 142 °C (dec.) |  |  |
| CNc1cc(Oc2ccc(NC(=O)Nc3ccc(C)c(C(F)(F)F)c3)cc2)ncn1 [Example 67] | 202 to 203 °C (dec.) |  |  |
| Cc1ccc(NC(=O)Nc2ccc(Oc3cc(Cl)ncn3)cc2)cc1C(F)(F)F [Example 76, 1-[4-(6-Chloro-pyrimidin-4-yloxy)-phenyl]-3-(4-methyl-3-trifluoromethyl-phenyl)-urea] | 183 to 184.5 °C |  |  |
| Cc1ccc(NC(=O)Nc2ccc(Oc3cc(Cl)ncn3)cc2)cc1 [Example 97, 1-[4-(6-Chloro-pyrimidin-4-yloxy)-phenyl]-3-p-tolyl-urea] | 217 to 219 °C |  |  |
| CCc1cc(Oc2ccc(NC(=O)Nc3ccc(C)cc3)cc2)ncn1 [Example 99, 1-[4-(6-Ethyl-pyrimidin-4-yloxy)phenyl]-3-p-tolyl-urea] | 160 to 162 °C |  |  |
| CCN1CCN(Cc2cc(NC(=O)Nc3ccc(Oc4cc(Cl)ncn4)cc3)cc(C(F)(F)F)c2)CC1 [Example 134, N-(4-(6-Chloropyrimidin-4-yl-oxy)-phenyl)-N′-{5-trifluoromethyl-3-[(4-ethylpiperazin-1-ylmethyl)]-phenyl}-urea] | 168 to 169 °C |  |  |
| CN(C)Cc1cc(NC(=O)Nc2ccc(Oc3cc(Cl)ncn3)cc2)cc(C(F)(F)F)c1 [Example 135, N-(4-(6-Chloropyrimidin-4-yl-oxy)-phenyl)-N′-[5-trifluoromethyl-3-(dimethylamino-methyl)-phenyl]-urea] | 154 °C |  |  |
| O=C(Nc1cccc(C(F)(F)F)c1)N1CCc2cc(Oc3cc(Cl)ncn3)ccc21 [Example 163, 5-(6-Chloro-pyrimidin-4-yloxy)-2,3-dihydro-indole-1-carboxylic acid (3-trifluoromethyl-phenyl)-amide] | 181 °C |  |  |

Further lines, results first:

| melting point | c-Abl (% at 10 μM) [1] [%] | KDR trans (% at 10 μM) [2] [%] | Compound |
| --- | --- | --- | --- |
| 166.5 to 168 °C | 62 | 100 | CCc1ccc(NC(=O)Nc2ccc(Oc3ccncc3)cc2)cc1 [Example 1, N-(4-pyridin-4-yl-oxy-phenyl)-N′-(4-ethyl-phenyl)-urea] |
|  | 84 | 99 | O=C(Nc1ccc(Oc2ccncc2)cc1)Nc1cccc(C(F)(F)F)c1 [Example 2] |
| 162.5 to 164.5 °C |  |  | COc1cc(NC(=O)Nc2ccc(Oc3ccncc3)cc2)cc(C(F)(F)F)c1 [Example 37, 1-(3-Methoxy-5-trifluoromethyl-phenyl)-3-[4-(pyridin-4-yloxy)-phenyl]-urea] |
| 60 °C (dec.) |  |  | CCN(CC)c1ccc(NC(=O)Nc2ccc(Oc3ccncc3)cc2)cc1C(F)(F)F [Example 39] |
| 149 °C (dec.) |  |  | Cc1ccc(NC(=O)Nc2ccc(Oc3ccncc3)cc2)cc1C(F)(F)F [Example 43, 1-(4-Methyl-3-trifluoromethyl-phenyl)-3-[4-(pyridin-4-yloxy)-phenyl]-urea] |
